Experimental data reported in ChEMBL document CHEMBL4219122, “Synthesis and biological evaluation of histone deacetylase and DNA topoisomerase II-Targeted inhibitors” (Bioorg Med Chem, 2018).
The source made the active and inactive calls. The rule behind the calls is not given here.

What was measured:
[1] = Growth inhibition of human HBC4 cells after 48 hrs by sulforhodamine B-based colorimetric assay; type: functional; conditions: HBC4, 48 h
[2] = system: DMS-114; test: Growth inhibition of human DMS114 cells after 48 hrs by sulforhodamine B-based colorimetric assay; type: functional; conditions: DMS-114, 48 h
[3] = system: MKN-74; test: Growth inhibition of human MKN74 cells after 48 hrs by sulforhodamine B-based colorimetric assay; type: functional; conditions: MKN-74, 48 h
[4] = system: MKN-28; test: Growth inhibition of human MKN28 cells after 48 hrs by sulforhodamine B-based colorimetric assay; type: functional; conditions: MKN-28, 48 h
[5] = system: PC-3; test: Growth inhibition of human PC3 cells after 48 hrs by sulforhodamine B-based colorimetric assay; type: functional; conditions: PC-3, 48 h
[6] = system: OVCAR-8; test: Growth inhibition of human OVCAR8 cells after 48 hrs by sulforhodamine B-based colorimetric assay; type: functional; conditions: OVCAR-8, 48 h
[7] = system: HT-29; test: Growth inhibition of human HT-29 cells after 48 hrs by sulforhodamine B-based colorimetric assay; type: functional; conditions: HT-29, 48 h
[8] = system: NCI-H226; test: Growth inhibition of human NCI-H226 cells after 48 hrs by sulforhodamine B-based colorimetric assay; type: functional; conditions: NCI-H226, 48 h
[9] = system: NCI-H460; test: Growth inhibition of human NCI-H460 cells after 48 hrs by sulforhodamine B-based colorimetric assay; type: functional; conditions: NCI-H460, 48 h
[10] = Growth inhibition of human HBC5 cells after 48 hrs by sulforhodamine B-based colorimetric assay; type: functional; conditions: HBC5, 48 h
[11] = system: MCF7; test: Growth inhibition of human MCF7 cells after 48 hrs by sulforhodamine B-based colorimetric assay; type: functional, cell-based; conditions: MCF7, 48 h
[12] = system: HCT-15; test: Growth inhibition of human HCT15 cells after 48 hrs by sulforhodamine B-based colorimetric assay; type: functional; conditions: HCT-15, 48 h
[13] = system: MKN-7; test: Growth inhibition of human MKN7 cells after 48 hrs by sulforhodamine B-based colorimetric assay; type: functional; conditions: MKN-7, 48 h
[14] = system: KM12; test: Growth inhibition of human KM12 cells after 48 hrs by sulforhodamine B-based colorimetric assay; type: functional; conditions: KM12, 48 h
[15] = system: SNB-78; test: Growth inhibition of human SNB78 cells after 48 hrs by sulforhodamine B-based colorimetric assay; type: functional; conditions: SNB-78, 48 h
[16] = system: SF-268; test: Growth inhibition of human SF268 cells after 48 hrs by sulforhodamine B-based colorimetric assay; type: functional; conditions: SF-268, 48 h
[17] = target: T1, DNA topoisomerase 2-alpha (Homo sapiens, UniProt P11388); test: Inhibition of human topoisomerase-2 alpha-mediated kinetoplast DNA decatenation at 200 uM after 30 mins by ethidium bromide staining based agarose gel electrophoresis
[18] = system: OVCAR-3; test: Growth inhibition of human OVCAR3 cells after 48 hrs by sulforhodamine B-based colorimetric assay; type: functional; conditions: OVCAR-3, 48 h
[19] = system: DU-145; test: Growth inhibition of human DU145 cells after 48 hrs by sulforhodamine B-based colorimetric assay; type: functional, cell-based; conditions: DU-145, 48 h
[20] = system: MKN-45; test: Growth inhibition of human MKN45 cells after 48 hrs by sulforhodamine B-based colorimetric assay; type: functional; conditions: MKN-45, 48 h
[21] = system: HCC 2998; test: Growth inhibition of human HCC2998 cells after 48 hrs by sulforhodamine B-based colorimetric assay; type: functional; conditions: HCC 2998, 48 h
[22] = system: MKN-1; test: Growth inhibition of human MKN1 cells after 48 hrs by sulforhodamine B-based colorimetric assay; type: functional; conditions: MKN-1, 48 h
[23] = system: SNB-75; test: Growth inhibition of human SNB75 cells after 48 hrs by sulforhodamine B-based colorimetric assay; type: functional; conditions: SNB-75, 48 h
[24] = system: St-4; test: Growth inhibition of human St-4 cells after 48 hrs by sulforhodamine B-based colorimetric assay; type: functional; conditions: St-4, 48 h
[25] = system: LOX IMVI; test: Growth inhibition of human LOXIMVI cells after 48 hrs by sulforhodamine B-based colorimetric assay; type: functional
[26] = system: SF-295; test: Growth inhibition of human SF295 cells after 48 hrs by sulforhodamine B-based colorimetric assay; type: functional; conditions: SF-295, 48 h
[27] = target: T1, DNA topoisomerase 2-alpha; test: Inhibition of human topoisomerase-2 alpha-mediated kinetoplast DNA decatenation at 100 to 400 uM after 30 mins by ethidium bromide staining based agarose gel electrophoresis
[28] = system: NCI-H522; test: Growth inhibition of human NCI-H522 cells after 48 hrs by sulforhodamine B-based colorimetric assay; type: functional; conditions: NCI-H522, 48 h

T1 sequence (P11388 whole entry): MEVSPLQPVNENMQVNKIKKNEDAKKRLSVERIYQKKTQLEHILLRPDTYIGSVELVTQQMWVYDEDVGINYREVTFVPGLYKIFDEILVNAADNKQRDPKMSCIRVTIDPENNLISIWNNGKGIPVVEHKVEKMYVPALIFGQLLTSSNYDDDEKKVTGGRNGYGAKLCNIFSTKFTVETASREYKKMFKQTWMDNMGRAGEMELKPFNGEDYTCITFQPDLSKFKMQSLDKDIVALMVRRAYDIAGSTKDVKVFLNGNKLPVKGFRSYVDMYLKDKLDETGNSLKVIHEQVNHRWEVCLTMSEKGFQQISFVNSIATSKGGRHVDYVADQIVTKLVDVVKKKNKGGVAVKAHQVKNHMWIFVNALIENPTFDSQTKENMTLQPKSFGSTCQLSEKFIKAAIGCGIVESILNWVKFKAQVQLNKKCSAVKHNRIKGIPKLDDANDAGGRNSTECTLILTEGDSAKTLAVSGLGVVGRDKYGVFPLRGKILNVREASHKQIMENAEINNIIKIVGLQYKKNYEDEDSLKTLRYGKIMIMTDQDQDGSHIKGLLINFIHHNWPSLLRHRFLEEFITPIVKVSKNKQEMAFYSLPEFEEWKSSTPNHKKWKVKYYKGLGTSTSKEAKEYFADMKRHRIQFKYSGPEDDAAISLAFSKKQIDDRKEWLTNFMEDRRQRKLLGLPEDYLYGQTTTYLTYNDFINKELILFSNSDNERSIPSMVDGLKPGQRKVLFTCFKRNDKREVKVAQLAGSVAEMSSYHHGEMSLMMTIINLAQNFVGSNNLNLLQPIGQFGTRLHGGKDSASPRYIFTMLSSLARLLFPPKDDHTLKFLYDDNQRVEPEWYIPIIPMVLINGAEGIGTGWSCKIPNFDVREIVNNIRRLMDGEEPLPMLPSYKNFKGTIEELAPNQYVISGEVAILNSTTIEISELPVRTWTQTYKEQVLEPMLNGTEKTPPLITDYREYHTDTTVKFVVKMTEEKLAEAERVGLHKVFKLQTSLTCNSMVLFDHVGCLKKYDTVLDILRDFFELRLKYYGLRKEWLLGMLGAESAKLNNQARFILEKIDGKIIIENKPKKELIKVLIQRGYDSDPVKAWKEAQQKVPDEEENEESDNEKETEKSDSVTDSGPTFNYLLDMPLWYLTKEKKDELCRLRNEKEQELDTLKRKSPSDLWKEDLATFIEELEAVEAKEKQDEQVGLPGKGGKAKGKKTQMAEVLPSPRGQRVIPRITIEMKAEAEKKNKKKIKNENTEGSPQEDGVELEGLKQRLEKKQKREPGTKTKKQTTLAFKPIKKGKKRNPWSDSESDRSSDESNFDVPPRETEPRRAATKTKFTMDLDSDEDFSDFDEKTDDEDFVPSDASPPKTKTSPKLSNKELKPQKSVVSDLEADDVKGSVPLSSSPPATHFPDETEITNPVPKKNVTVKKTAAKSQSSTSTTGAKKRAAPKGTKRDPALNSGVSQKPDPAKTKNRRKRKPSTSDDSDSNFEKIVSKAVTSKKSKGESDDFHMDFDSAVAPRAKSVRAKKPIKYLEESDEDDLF

In the case of `Cc1cn([C@@H]2C[C@H](C3(c4ccc(NC(=O)CCCCCCC(=O)NO)cc4)SCCCS3)[C@@H](CO[Si](C)(C)C(C)(C)C)O2)c(=O)[nH]c1=O`, the GI50 [1] is reported as 4.17 µM, the GI50 [2] is reported as 3.55 µM and the GI50 [3] is reported as 5.75 µM. The GI50 [4] was 4.27 µM, the GI50 [5] was 4.57 µM and the GI50 [6] was 4.27 µM. It also gave a GI50 [7] of 7.08 µM, a GI50 [8] of 10.2 µM and a GI50 [9] of 4.68 µM. The GI50 [10] was 6.31 µM, the GI50 ([11]; read-out: GI50) was 3.89 µM and the GI50 ([11]; read-out: pGI50 (converted)) was 3.89 µM. It also gave a GI50 [12] of 15.5 µM, a GI50 [13] of 3.47 µM and a GI50 [14] of 6.76 µM. The GI50 [15] was 10 µM, the GI50 [16] was 6.03 µM and the inhibition [17] was “Active”. For the same molecule, the GI50 [18] was 3020 nM, the GI50 ([19]; read-out: GI50) was 3.98 µM and the GI50 ([19]; read-out: pGI50 (converted)) was 3.98 µM. For the same molecule, the GI50 [20] was 10 µM, the GI50 [21] was 8.32 µM and the GI50 [22] was 4.47 µM. It also gave a GI50 [23] of 5.5 µM, a GI50 [24] of 8.71 µM and a GI50 [25] of 2140 nM. For the same molecule, the GI50 [26] was 6.92 µM, the inhibition [27] was “Active” and the GI50 [28] was 2690 nM.
`Cc1cn([C@H]2C[C@H](C3(c4ccc(NC(=O)CCCCCCC(=O)NO)cc4)SCCCS3)[C@@H](CO[Si](C)(C)C(C)(C)C)O2)c(=O)[nH]c1=O` showed a GI50 [1] of 3.89 µM, a GI50 [2] of 3.09 µM and a GI50 [3] of 4.47 µM. It also gave a GI50 [4] of 3.72 µM, a GI50 [5] of 4.37 µM and a GI50 [6] of 3.55 µM. It also gave a GI50 [7] of 3.63 µM, a GI50 [8] of 3.89 µM and a GI50 [9] of 3.98 µM. The GI50 [10] was 6.46 µM, the GI50 ([11]; read-out: GI50) was 3.24 µM and the GI50 ([11]; read-out: pGI50 (converted)) was 3.24 µM. The GI50 [12] was 3.55 µM, the GI50 [13] was 2.95 µM and the GI50 [14] was 4.57 µM. For the same molecule, the GI50 [15] was 6.76 µM, the GI50 [16] was 4.37 µM and the inhibition [17] was “Active”. It also gave a GI50 [18] of 2950 nM, a GI50 ([19]; read-out: GI50) of 3.98 µM and a GI50 ([19]; read-out: pGI50 (converted)) of 3.98 µM. It also gave a GI50 [20] of 3.8 µM, a GI50 [21] of 3.98 µM and a GI50 [22] of 2.95 µM. The GI50 [23] was 5.37 µM, the GI50 [24] was 4.07 µM and the GI50 [25] was 1780 nM. For the same molecule, the GI50 [26] was 4.9 µM, the inhibition [27] was “Active” and the GI50 [28] was 2690 nM.
